Results reported in patent US20230055237A1, “COMPOUNDS AND METHODS FOR THE TREATMENT OF CYSTIC FIBROSIS” (Flatley Discovery Lab, LLC, priority 2019, published 2023).

Target: T1, CFTR (Homo sapiens, UniProt P13569, DEL508-508)
T1 construct: Primary CF airway epithelial cells were obtained from the UNC Cystic Fibrosis Tissue Procurement and Cell Culture Core; host or cells: primary CF airway epithelial cells, differentiated at the air-liquid interface
Test: Equivalent current assay in primary CF airway epithelial cells (NAUC, combination with 1st site corrector FDL169 or VX-809)
Type: cell-based
Conditions: 37° C., 24 h

[1] = test compound 10 μM in combination with 1st site corrector FDL169 (3 μM)
[2] = test compound 1 μM in combination with 1st site corrector FDL169 (3 μM)
[3] = test compound 3 μM in combination with 1st site corrector FDL169 (3 μM)
[4] = test compound 1 μM in combination with 1st site corrector VX-809 (3 μM)
[5] = test compound 3 μM in combination with 1st site corrector VX-809 (3 μM)
[6] = test compound 10 μM in combination with 1st site corrector VX-809 (3 μM)

T1 sequence (P13569 with tags, fused parts or gaps DEL508-508): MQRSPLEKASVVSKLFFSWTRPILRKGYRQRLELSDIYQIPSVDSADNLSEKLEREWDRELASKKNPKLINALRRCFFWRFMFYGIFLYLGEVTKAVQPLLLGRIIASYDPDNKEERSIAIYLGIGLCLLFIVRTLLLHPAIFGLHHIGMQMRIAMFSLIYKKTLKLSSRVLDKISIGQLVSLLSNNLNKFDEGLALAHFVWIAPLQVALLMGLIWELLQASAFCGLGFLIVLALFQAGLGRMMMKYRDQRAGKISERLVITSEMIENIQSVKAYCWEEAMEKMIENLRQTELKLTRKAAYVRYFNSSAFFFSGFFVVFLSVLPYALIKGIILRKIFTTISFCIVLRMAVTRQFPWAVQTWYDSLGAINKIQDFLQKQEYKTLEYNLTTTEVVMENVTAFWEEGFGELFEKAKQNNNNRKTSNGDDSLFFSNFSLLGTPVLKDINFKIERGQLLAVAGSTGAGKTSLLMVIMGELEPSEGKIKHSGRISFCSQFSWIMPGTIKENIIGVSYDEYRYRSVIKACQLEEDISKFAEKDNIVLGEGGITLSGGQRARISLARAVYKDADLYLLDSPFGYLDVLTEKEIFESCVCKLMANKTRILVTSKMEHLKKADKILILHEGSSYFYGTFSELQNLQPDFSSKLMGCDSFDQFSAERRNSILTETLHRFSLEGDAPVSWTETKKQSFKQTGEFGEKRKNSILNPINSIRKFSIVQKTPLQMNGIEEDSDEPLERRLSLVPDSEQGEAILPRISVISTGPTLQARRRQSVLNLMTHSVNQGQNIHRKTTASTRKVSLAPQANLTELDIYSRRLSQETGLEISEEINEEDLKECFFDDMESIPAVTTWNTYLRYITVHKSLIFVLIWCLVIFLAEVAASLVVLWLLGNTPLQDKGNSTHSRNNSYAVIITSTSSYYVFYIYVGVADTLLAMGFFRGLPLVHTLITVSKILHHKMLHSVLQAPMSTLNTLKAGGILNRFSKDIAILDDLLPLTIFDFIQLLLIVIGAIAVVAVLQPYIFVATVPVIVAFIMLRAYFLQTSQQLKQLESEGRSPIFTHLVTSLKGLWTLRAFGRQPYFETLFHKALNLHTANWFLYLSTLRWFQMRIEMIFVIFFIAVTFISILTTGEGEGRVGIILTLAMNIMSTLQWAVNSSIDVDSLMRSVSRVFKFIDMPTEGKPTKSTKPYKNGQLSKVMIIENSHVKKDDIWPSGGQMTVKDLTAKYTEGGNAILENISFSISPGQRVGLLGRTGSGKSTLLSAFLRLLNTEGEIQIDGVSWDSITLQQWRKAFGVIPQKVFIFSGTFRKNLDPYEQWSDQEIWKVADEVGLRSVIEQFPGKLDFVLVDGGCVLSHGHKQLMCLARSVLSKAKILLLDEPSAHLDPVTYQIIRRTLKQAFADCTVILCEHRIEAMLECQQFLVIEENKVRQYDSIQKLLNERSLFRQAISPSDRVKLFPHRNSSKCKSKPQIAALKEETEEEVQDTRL

Row | SMILES | Nauc @ 10 μM [1] | Nauc @ 1 μM [2] | Nauc @ 3 μM [3] | Nauc @ 1 μM [4] | Nauc @ 3 μM [5] | Nauc @ 10 μM [6]
1 | CN(C(=O)[C@H]1[C@H]2CC(F)(F)CN2C2(C(=O)Nc3c(Cl)cccc32)[C@H]1C(=O)O)c1cc(Cl)cc(Cl)c1 (stereo partly drawn) [Example 104] | + (NAUC “+” refers to an observed NAUC <140% of positive control) | – | – | – | – | –
2 | CC(C)(C)CN(C(=O)[C@H]1[C@H]2CC(F)(F)CN2[C@]2(C(=O)Nc3c(Cl)cc(Cl)cc32)[C@H]1C(=O)O)c1cc(Cl)cc(Cl)c1 [Example 110, (1′R,2′S,3R,7a′R)-5,7-dichloro-1-((3,5-dichlorophenyl)(neopentyl)carbamoyl)-6′,6′-difluoro-2-oxo-1′,2′,5′,6′,7′,7a′-hexahydrospiro[indoline-3,3′-pyrrolizine]-2′-carboxylic acid] | + (NAUC “+” refers to an observed NAUC <140% of positive control) | +++ (NAUC “+++” refers to an observed NAUC>170% of positive control) | +++ (NAUC “+++” refers to an observed NAUC>170% of positive control) | – | – | –
3 | CC(C)(C)CN(C(=O)[C@H]1[C@@H](C(=O)O)[C@]2(C(=O)Nc3c(Cl)cc(Cl)cc32)N2CC(F)(F)C[C@@H]12)c1cc(Cl)cc(Cl)c1 [Example 111, (1′S,2′R,3S,7a′S)-5,7-dichloro-1-((3,5-dichlorophenyl)(neopentyl)carbamoyl)-6′,6′-difluoro-2-oxo-1′,2′,5′,6′,7′,7a′-hexahydrospiro[indoline-3,3′-pyrrolizine]-2′-carboxylic acid] | – | + (NAUC “+” refers to an observed NAUC <140% of positive control) | ++ (NAUC “++” refers to an observed NAUC 170-140% of positive control) | – | – | –
4 | CN(CC1(c2cccc(C(C)(C)C)c2)CC1)C(=O)[C@H]1[C@H]2CC(F)(F)CN2[C@]2(C(=O)Nc3c(Cl)cc(Cl)cc32)[C@H]1C(=O)O [Example 112] | – | – | – | +++ (NAUC “+++” refers to an observed NAUC>170% of positive control) | +++ (NAUC “+++” refers to an observed NAUC>170% of positive control) | +++ (NAUC “+++” refers to an observed NAUC>170% of positive control)
5 | O=C(Nc1ccc2ccccc2n1)[C@H]1[C@H]2CC(F)(F)CN2[C@]2(C(=O)Nc3c(Cl)cc(Cl)cc32)[C@H]1C(=O)O [Example 113] | – | – | – | + (NAUC “+” refers to an observed NAUC <140% of positive control) | + (NAUC “+” refers to an observed NAUC <140% of positive control) | + (NAUC “+” refers to an observed NAUC <140% of positive control)
6 | CN(C(=O)[C@H]1[C@H]2CC(F)(F)CN2[C@]2(C(=O)Nc3c(Cl)cc(Cl)cc32)[C@H]1C(=O)O)c1cccc(C(F)(F)F)n1 [Example 114] | – | – | – | +++ (NAUC “+++” refers to an observed NAUC>170% of positive control) | ++ (NAUC “++” refers to an observed NAUC 170-140% of positive control) | +++ (NAUC “+++” refers to an observed NAUC>170% of positive control)
7 | O=C(Nc1ccc2ccccc2c1)[C@H]1[C@H]2CC(F)(F)CN2[C@]2(C(=O)Nc3c(Cl)cc(Cl)cc32)[C@H]1C(=O)O [Example 115] | – | – | – | + (NAUC “+” refers to an observed NAUC <140% of positive control) | + (NAUC “+” refers to an observed NAUC <140% of positive control) | + (NAUC “+” refers to an observed NAUC <140% of positive control)
8 | O=C(O)[C@H]1[C@@H](C(=O)N(c2cc(Cl)cc(Cl)c2)C2CC2)[C@H]2CC(F)(F)CN2[C@]12C(=O)Nc1c(Cl)cc(Cl)cc12 [Example 116] | – | – | – | +++ (NAUC “+++” refers to an observed NAUC>170% of positive control) | +++ (NAUC “+++” refers to an observed NAUC>170% of positive control) | ++ (NAUC “++” refers to an observed NAUC 170-140% of positive control)
9 | O=C(Nc1ccc2ccccc2c1)[C@H]1[C@H]2CC(F)(F)CN2[C@]2(C(=O)Nc3c(Cl)cc(Cl)cc32)[C@H]1C(=O)O [Example 117] | – | – | – | + (NAUC “+” refers to an observed NAUC <140% of positive control) | ++ (NAUC “++” refers to an observed NAUC 170-140% of positive control) | + (NAUC “+” refers to an observed NAUC <140% of positive control)
10 | Cc1nc2ccc(NC(=O)[C@H]3[C@H]4CC(F)(F)CN4[C@]4(C(=O)Nc5c(Cl)cc(Cl)cc54)[C@H]3C(=O)O)cc2s1 [Example 118] | – | – | – | + (NAUC “+” refers to an observed NAUC <140% of positive control) | + (NAUC “+” refers to an observed NAUC <140% of positive control) | + (NAUC “+” refers to an observed NAUC <140% of positive control)
11 | O=C(Nc1cc2ccccc2cn1)[C@H]1[C@H]2CC(F)(F)CN2[C@]2(C(=O)Nc3c(Cl)cc(Cl)cc32)[C@H]1C(=O)O [Example 119] | – | – | – | + (NAUC “+” refers to an observed NAUC <140% of positive control) | + (NAUC “+” refers to an observed NAUC <140% of positive control) | + (NAUC “+” refers to an observed NAUC <140% of positive control)
12 | O=C(Nc1ccc2ncccc2c1)[C@H]1[C@H]2CC(F)(F)CN2[C@]2(C(=O)Nc3c(Cl)cc(Cl)cc32)[C@H]1C(=O)O [Example 120] | – | – | – | + (NAUC “+” refers to an observed NAUC <140% of positive control) | + (NAUC “+” refers to an observed NAUC <140% of positive control) | + (NAUC “+” refers to an observed NAUC <140% of positive control)
13 | O=C(Nc1ccccc1-c1ccccc1)[C@H]1[C@H]2CC(F)(F)CN2[C@]2(C(=O)Nc3c(Cl)cc(Cl)cc32)[C@H]1C(=O)O [Example 121] | – | – | – | +++ (NAUC “+++” refers to an observed NAUC>170% of positive control) | +++ (NAUC “+++” refers to an observed NAUC>170% of positive control) | ++ (NAUC “++” refers to an observed NAUC 170-140% of positive control)
14 | O=C(Nc1nccc2ccccc12)[C@H]1[C@H]2CC(F)(F)CN2[C@]2(C(=O)Nc3c(Cl)cc(Cl)cc32)[C@H]1C(=O)O [Example 122] | – | – | – | + (NAUC “+” refers to an observed NAUC <140% of positive control) | + (NAUC “+” refers to an observed NAUC <140% of positive control) | –
15 | Cn1nc(NC(=O)[C@H]2[C@H]3CC(F)(F)CN3[C@]3(C(=O)Nc4c(Cl)cc(Cl)cc43)[C@H]2C(=O)O)c2cccnc21 [Example 123] | – | – | – | + (NAUC “+” refers to an observed NAUC <140% of positive control) | + (NAUC “+” refers to an observed NAUC <140% of positive control) | –
16 | O=C(Nc1cccc(-c2ccccc2)c1)[C@H]1[C@H]2CC(F)(F)CN2[C@]2(C(=O)Nc3c(Cl)cc(Cl)cc32)[C@H]1C(=O)O [Example 124] | – | – | – | +++ (NAUC “+++” refers to an observed NAUC>170% of positive control) | +++ (NAUC “+++” refers to an observed NAUC>170% of positive control) | –
